Relaxation, pD2 and Emax data for 27 compounds are collected here from ChEMBL document CHEMBL1131357, “New bronchodilators selected by molecular topology” (1998).

Each structure is given as a SMILES string.

Type in all cases: functional
Experiment [1] is filed under the species Cavia porcellus. Briefly: Percent relaxation using isolated guinea pig trachea.
For experiment [2], the species on record is Cavia porcellus. Description: Percent relaxation of isolated guinea pig trachea.
For experiment [3], the species on record is Cavia porcellus. Description: pD2 value (pD2 = -log EC50) was calculated using indometazine in guinea pig trachea.
Experiment [4] is filed under the species Cavia porcellus. Description: Compound was evaluated for the percent of relaxation using isolated guinea pig trachea.
For experiment [5], the species on record is Cavia porcellus. Briefly: Compound was evaluated for the percent of relaxation using isolated guinea pig trachea at a dose of 1 mM.

`Oc1ccc2c(O)c3ccccc3cc2c1O` [ANTHRAROBIN]: the Relaxation in the experiment filed under Cavia porcellus [1] amounted to 92%. This compound gave a pD2 in the experiment listed under Cavia porcellus [2] of 5.69.

Regarding `CCCCC1C(=O)N(c2ccccc2)N(c2ccccc2)C1=O` [PHENYLBUTAZONE], the Relaxation in the experiment listed under Cavia porcellus [1] is recorded as 28%. Further, the pD2 in the experiment filed under Cavia porcellus [3] is given as 4.69.

Consider `Cn1c(=O)c2nc[nH]c2n(C)c1=O.O` [THEOPHYLLINE], for which the Relaxation in the experiment listed under Cavia porcellus [4] is listed as 77.1%. Besides, in the experiment filed under Cavia porcellus [2], the pD2 is 4.69. The same compound came in with an Emax at 1000 µM in the experiment filed under Cavia porcellus [5] of 100%.

On to `O=C(O)c1ccc2c(c1)S(=O)(=O)c1ccccc1C2=O`, for which the Relaxation in the experiment filed under Cavia porcellus [1] is listed as 85%. Moreover, in the experiment listed under Cavia porcellus [2], the pD2 is recorded as 4.65.

On to `O=C(CN1CCNCC1)N1CCCC1`, for which the Relaxation in the experiment listed under Cavia porcellus [1] is 59%. In the experiment filed under Cavia porcellus [2], this compound had a pD2 of 4.6.

As to `O=C(O)c1cn(C2CC2)c2cc(N3CCNCC3)c(F)cc2c1=O` [CIPROFLOXACIN], in the experiment listed under Cavia porcellus [1], the Relaxation is 0%.

For `CC(=O)CC(c1ccc([N+](=O)[O-])cc1)c1c(O)c2ccccc2oc1=O` (stereo not drawn) [ACENOCOUMAROL], in the experiment listed under Cavia porcellus [1], the Relaxation turned out to be 69%. Further, the pD2 in the experiment listed under Cavia porcellus [2] was 4.55.

Consider `N#Cc1ccc2c(c1)S(=O)(=O)c1ccccc1C2=O`, for which, in the experiment filed under Cavia porcellus [1], the Relaxation amounted to 13%. In the experiment filed under Cavia porcellus [2], this compound registered a pD2 of 4.53.

In the case of `COC1=CC(=O)C[C@@H](C)[C@]12Oc1c(Cl)c(OC)cc(OC)c1C2=O` [GRISEOFULVIN], in the experiment listed under Cavia porcellus [1], the Relaxation amounted to 74%. The same compound had a pD2 in the experiment filed under Cavia porcellus [2] of 4.8.

For `O=C1c2ccccc2S(=O)(=O)c2cc(-c3nn[nH]n3)ccc21` [DOXANTRAZOLE], the Relaxation in the experiment filed under Cavia porcellus [1] is 91%. Besides, in the experiment listed under Cavia porcellus [2], the pD2 came out at 5.5.

On to `CCN(CC)c1ccc2nc3c4ccccc4c(=O)cc-3oc2c1` [NILE RED], for which the Relaxation in the experiment listed under Cavia porcellus [1] is recorded as 0%.

As to `Cc1nc2c(o1)CC1C=CC=CC1=CC2O` (stereo not drawn), the Relaxation in the experiment listed under Cavia porcellus [1] came out at 37%. In addition, in the experiment filed under Cavia porcellus [2], the pD2 is recorded as 4.8.

For `CCn1cc(C(=O)O)c(=O)c2cnc(N3CCCC3)nc21` [PIROMIDIC ACID], the Relaxation in the experiment filed under Cavia porcellus [1] amounted to 25%. In the experiment filed under Cavia porcellus [2], the pD2 was 5.3.

For `CCn1cc(C(=O)O)c(=O)c2cc(F)c(N3CCNCC3)cc21` [NORFLOXACIN], the Relaxation in the experiment listed under Cavia porcellus [1] worked out at 0%.

For `Cc1ccc(S(=O)(=O)N2CCCSCC2)cc1`, the Relaxation in the experiment listed under Cavia porcellus [1] was determined as 0%.

On to `C[C@]12CCC(=O)C=C1CCCC2=O`, for which the Relaxation in the experiment filed under Cavia porcellus [1] was 22%. Also, the pD2 in the experiment listed under Cavia porcellus [2] was 4.5.

Turning to `Cc1c(C2(c3cc(Br)c(O)c(Br)c3C)OS(=O)(=O)c3ccccc32)cc(Br)c(O)c1Br` [BROMCRESOL GREEN], the Relaxation in the experiment listed under Cavia porcellus [1] is listed as 21%. Moreover, in the experiment listed under Cavia porcellus [2], the pD2 is listed as 4.5.

On to `COC(=O)C1C2CCC(O2)C1C(=O)OC` (stereo not drawn), for which the Relaxation in the experiment listed under Cavia porcellus [1] was determined as 28%. The same compound returned a pD2 in the experiment listed under Cavia porcellus [2] of 4.8.

On to `O=S1(=O)OC(c2cc(Br)c(O)c(Br)c2)(c2cc(Br)c(O)c(Br)c2)c2ccccc21` [BROMOPHENOL BLUE], for which the Relaxation in the experiment listed under Cavia porcellus [1] is 51%. Also, in the experiment filed under Cavia porcellus [2], the pD2 is 4.5.

Take `Nc1nccs1` [AMINOTHIAZOLE]: in the experiment listed under Cavia porcellus [1], the Relaxation is on record as 19%. The same compound yielded a pD2 in the experiment listed under Cavia porcellus [2] of 4.4.

In the case of `Cc1c(C(C)C)c(=O)n(-c2ccccc2)n1C` [PROPYPHENAZONE], the Relaxation in the experiment filed under Cavia porcellus [1] turned out to be 29%. In the experiment filed under Cavia porcellus [2], this compound came in with a pD2 of 5.69.

Turning to `C[n+]1cc2c3c(ccc2c2ccc4cc5c(cc4c21)OCO5)OCO3` [SANGUINARIUM], in the experiment listed under Cavia porcellus [1], the Relaxation is recorded as -89%.

For the compound `Cc1occc(=O)c1O` [MALTOL], the Relaxation in the experiment listed under Cavia porcellus [1] is 16%. The compound also returned a pD2 in the experiment listed under Cavia porcellus [2] of 5.25.

`OC(Cn1cncn1)(Cn1cncn1)c1ccc(F)cc1F` [FLUCONAZOLE]: the Relaxation in the experiment listed under Cavia porcellus [1] is -51%.

Consider `NC(=O)c1ccc2c(c1)S(=O)(=O)c1ccccc1C2=O`, for which, in the experiment filed under Cavia porcellus [1], the Relaxation is 18%. In the experiment listed under Cavia porcellus [2], this compound had a pD2 of 5.69.

For the compound `CCCCC(CC)CN1CN(CC(CC)CCCC)CC(C)(N)C1` (stereo not drawn) [HEXETIDINE], the Relaxation in the experiment listed under Cavia porcellus [1] was -94%.

As for `CN1C(C(=O)Nc2ccccn2)=C(O)c2sccc2S1(=O)=O` [TENOXICAM], the Relaxation in the experiment filed under Cavia porcellus [1] came to 32%. Moreover, the pD2 in the experiment filed under Cavia porcellus [3] was 5.2.

By Emax is commonly meant the size of the effect at its maximum, as opposed to the concentration needed.
